Test [1] concerns IL-6 production from PBMCs. The experiment in a line: LPS stimulation-induced IL-6 production in PBMCs. In kind it is cell-based. The settings on record: Homo sapiens, PBMC, 72 h, LPS 3 ng/mL, 3 days. The protocol:
Cryopreserved PBMCs were quickly thawed in a 37° C. thermostat and added to a tube containing medium. After centrifugation (at room temperature at 300 g for 10 minutes) to remove the supernatant, the cells were suspended again in the medium (10 mL), followed by counting the number of viable cells. After centrifugation (at room temperature at 300 g for 10 minutes) to remove the supernatant, the medium was added to suspend the cells at 1×10^6 cells/mL. This cell suspension was seeded in a 96-well plate in a volume of 100 μL/well (1×10^5 cells/well). […] The cells were cultured in a CO2 incubator for 3 days to collect the culture supernatants.
The collected culture supernatants were quantified for IL-6 using Human IL-6 DuoSet ELISA.

In test [2] the test system is IL-6 production from PBMCs. Description: T-cell stimulation bead- and LPS stimulation-induced CRS toxicity evaluation system in PBMCs: IL-6. In kind it is cell-based, human. As to conditions: CD3/CD28 + LPS; for IC50: Homo sapiens, PBMC, 72 h, 3 days. The method, then:
Cryopreserved PBMCs were quickly thawed in a 37° C. thermostat and added to a tube containing medium. After centrifugation (at room temperature at 300 g for 10 minutes) to remove the supernatant, the cells were suspended again in the medium (10 mL), followed by counting the number of viable cells. After centrifugation (at room temperature at 300 g for 10 minutes) to remove the supernatant, the medium was added to suspend the cells at 1×10^6 cells/mL. This cell suspension was seeded in a 96-well plate in a volume of 100 μl/well (1×10^5 cells/well) and allowed to stand in a CO2 incubator for 1 to 2 hours.
The cells were cultured in a CO2 incubator for 3 days to collect the culture supernatants.
The collected culture supernatants were quantified for IFN-γ and IL-6 using Human IFN-γ DuoSet ELISA and Human IL-6 DuoSet ELISA.

The test system of test [3] is IL-18 production from LPS-pretreated CD14^+ cells. Description: ATP stimulation-induced IL-18 production from LPS-pretreated CD14^+ cells. In kind it is cell-based, human. The settings on record: for IC50: Homo sapiens, CD14^+ cells (LPS-pretreated), ATP 5 mM. The protocol:
Cryopreserved PBMCs were quickly thawed in a 37° C. thermostat and added to a tube containing medium. After centrifugation (at room temperature at 300 g for 10 minutes) to remove the supernatant, the cells were suspended again in the medium, followed by counting the number of viable cells. The cell suspension was centrifuged (at room temperature at 300 g for 10 minutes) to remove the supernatant, followed by addition of MACS Buffer to suspend the cells, to which Human CD14 MicroBeads were further added. After being allowed to stand on ice for 15 minutes, the cell suspension was diluted with MACS Buffer and centrifuged (at room temperature at 300 g for 10 minutes) to remove the supernatant.
MACS Buffer was added to the tube, and the cells were suspended and then applied to a separatory column to separate CD14^+ cells. The CD14^+ cell fraction was diluted with the medium and then centrifuged (at room temperature at 300 g for 10 minutes). The supernatant was removed and the cells were suspended in the medium (1 mL), followed by counting the number of viable cells. The cell suspension adjusted with the medium to 2×10^6 cells/mL was seeded in a 96-well plate (1×10^5 cells/well) and allowed to stand in a CO2 incubator for 1 to 2 hours. […] The cells were then stimulated with LPS (final concentration: 500 ng/mL) for 6 hours at 37° C. and an ATP solution (final concentration: 5 mM) was added thereto, and the 96-well plate was further allowed to stand in a CO2 incubator for 2 hours to collect the culture supernatants.
The collected culture supernatants were quantified for IL-18 using Human IL-18 DuoSet ELISA.

In test [4] the test system is killer activity of CAR-T cells. Description: Killer activity of CAR-T cells (CAR-T cells, target cells and CD14^+ cells, luciferase). In kind it is cell-based, human. As to conditions: 2 days. From the text:
FMC63 scFv, the hinge, transmembrane and cytoplasmic domains of CD28 and the cytoplasmic domain of CD3-ζ were used to construct anti-CD19 CAR on the basis of the method of Kochenderfer, et al.^15). The sequence was obtained from GenBank (HM852952) and an IDT codon optimization tool (http://sg.igtdna.com/CodonOpt) was used to remove BamHI recognition sequences within FMC63. The optimized FMC63-28z sequence was chemically synthesized and amplified by polymerase chain reaction (PCR) with the following primer set.
The PCR product was inserted into the multicloning site (EcoRI and BamHI) of lentivirus plasmid CSII-EF-MCS-2A-eGFP by using an In-Fusion HD cloning kit to obtain CSII-EF-FMC63-28z-2A-eGFP. To prepare a lentivirus vector, CSII-EF-FMC63-28z-2A-eGFP and a packaging plasmid (pMDLg/p.RRE, pRSV-rev and pMD.G) were co-transfected into Lenti-X293T cells. The prepared lentivirus vector was infected into peripheral blood mononuclear cells stimulated with anti-CD3 antibody, anti-CD28 antibody and IL-2, followed by FACS sorting to obtain a CD3-positive and eGFP-positive fraction as CAR-T cells.
On the basis of the method of Kochenderfer, et al.^15), the open reading frame of human CD19 was synthesized and amplified by PCR with the following primers. […]
Subsequently, luciferase activity was determined by detection of emission intensity with an EnSpire 2300.

A further test relates to TNF-α production. The experiment in a line: CRS toxicity evaluation system using CAR-T cells: TNF-α. In kind it is cell-based, human. The settings on record: for IC50: Homo sapiens, Monocyte, CAR-T cells, target cells and monocytes, 72 hours. The method, then:
The supernatants were collected at 72 hours after the initiation of culture, and various cytokines in each supernatant were measured by FACS multiplex assay.

Counter-ions that a name gives are not always drawn. Some results are limits rather than exact numbers.

For `CCOC(=O)[C@H](Cc1ccccc1)NC(=O)c1cc(Cl)c(OCCN2CCN(C)CC2)c(Cl)c1O` [JTE-607, (−)-ethyl N-{3,5-dichloro-2-hydroxy-4-[2-(4-methylpiperazin-1-yl)ethoxy]benzoyl}-L-phenylalaninate dihydrochloride], the IC50 turned out to be 17.7 nM in test [1], 40.4 nM in test [2], 2.4 nM in test [3] and 413 nM with TNF-α production. The “Ratio (IL-6/IFN-γ) of IC50 values” in test [2] turned out to be 0.81. Besides, in test [4], the “effect on the killer activity of CAR-T cells” value was “did not affect”.
For `C[C@]12C=CC(=O)C=C1CC[C@@H]1[C@@H]2[C@@H](O)C[C@@]2(C)[C@H]1CC[C@]2(O)C(=O)CO` [PSL, Prednisolone], the half-inhibitory concentration (IC50) in test [1] is 176 nM; in test [2], 3570 nM; in test [3], above 30000 nM; with TNF-α production, above 100000 nM. For the same compound, the “suppressive effect on IL-18 production” value in test [3] (LPS-pretreated CD14^+ cells, ATP) was “no suppressive effect”. For the same compound, in test [4], the “effect on the killer activity of CAR-T cells” value was “suppressive effect on the killer activity of CAR-T cells in a concentration-dependent manner”. Besides, the “suppressive effect on TNF-α” value with TNF-α production (CRS toxicity evaluation system using CAR-T cells) is recorded as “no suppressive effect”.

The values are drawn from US11744830B2, “Ameliorative agent for cytokine release syndrome and so on” (TORII PHARMACEUTICAL CO., LTD., priority 2018, dated 2023).
